“And” between values parts separate entries of the source, which are not always exact repeats. Identical values can stand only once. Toxic doses and inconclusive results are not listed. Rule for the calls: active = survival T/C of 150% or more; inactive = T/C below 125% in these data.
Tested on: CD2F1 mice, L1210 leukemia ip, survival T/C
Assay: NCI In Vivo Anticancer Drug Screen. Data for tumor model L1210 Leukemia (intraperitoneal) in CD2F1 (CDF1) mice
Conditions: higher = longer survival
Outline: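 Mice carrying a transplanted tumor received test compound or vehicle alone. The value is the measurement in the treated group divided by that in the vehicle-treated control group.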

[1] = endpoint: mean survival time, dose: 100.0 mg/kg/injection, schedule: Q01DX009 (ip), vehicle: saline with Tween-80
[2] = endpoint: mean survival time, dose: 200.0 mg/kg/injection, schedule: Q01DX009 (ip), vehicle: saline with Tween-80
[3] = endpoint: mean survival time, dose: 400.0 mg/kg/injection, schedule: Q01DX009 (ip), vehicle: saline with Tween-80
[4] = endpoint: mean survival time, dose: 100.0 mg/kg/injection, schedule: Q04DX003 (ip), vehicle: saline with Tween-80
[5] = endpoint: mean survival time, dose: 200.0 mg/kg/injection, schedule: Q04DX003 (ip), vehicle: saline with Tween-80
[6] = endpoint: mean survival time, dose: 400.0 mg/kg/injection, schedule: Q04DX003 (ip), vehicle: saline with Tween-80
[7] = endpoint: mean survival time, dose: 100.0 mg/kg/injection, schedule: Q01DX001 (ip), vehicle: saline with Tween-80
[8] = endpoint: mean survival time, dose: 200.0 mg/kg/injection, schedule: Q01DX001 (ip), vehicle: saline with Tween-80
[9] = endpoint: mean survival time, dose: 400.0 mg/kg/injection, schedule: Q01DX001 (ip), vehicle: saline with Tween-80
[10] = endpoint: mean survival time, dose: 400.0 mg/kg/injection, schedule: Q04DX003 (ip), vehicle: other

Measured: T/C

O=[N+]([O-])c1ccc2c(N=Nc3c(O)ccc4ccccc34)c(O)cc(S(=O)(=O)O)c2c1
inactive: endpoint: mean survival time, dose: 50.0 mg/kg/injection, schedule: Q01DX009 (ip), vehicle: saline 119 % of control | endpoint: mean survival time, dose: 100.0 mg/kg/injection, schedule: Q01DX009 (ip), vehicle: saline 100 % of control | endpoint: mean survival time, dose: 200.0 mg/kg/injection, schedule: Q01DX009 (ip), vehicle: saline 109 % of control

O=c1cc(C(F)(F)F)[nH]c2ccc(Br)cc12
inactive: endpoint: mean survival time, dose: 12.5 mg/kg/injection, schedule: Q04DX003 (ip), vehicle: saline with Tween-80 97 % of control | endpoint: mean survival time, dose: 25.0 mg/kg/injection, schedule: Q04DX003 (ip), vehicle: saline with Tween-80 95 % of control | endpoint: mean survival time, dose: 50.0 mg/kg/injection, schedule: Q04DX003 (ip), vehicle: saline with Tween-80 97 % of control

CC(C)(C)N1CC2C(c3ccccc3)NNC2(O)C1=O (stereo not given)
inactive: [1] 109 % of control | [2] 113 % of control | [3] 105 % of control

O=C1C(=O)c2cccnc2C(NC2CC3CCC2C3)=C1Cl (stereo not given)
inactive: endpoint: mean survival time, dose: 75.0 mg/kg/injection, schedule: Q04DX003 (ip), vehicle: saline 95 % of control | endpoint: mean survival time, dose: 150.0 mg/kg/injection, schedule: Q04DX003 (ip), vehicle: saline 98 % of control | endpoint: mean survival time, dose: 300.0 mg/kg/injection, schedule: Q04DX003 (ip), vehicle: saline 97 % of control

O=Cc1[nH]c(=S)[nH]c(=O)c1Cc1cccc2ccccc12
inactive: [4] 96 % of control | [5] 95 % of control | [6] 102 % of control

CC(C)(O)CCC(C)(C)O
inactive: [4] 106 % of control | [5] 101 % of control | [6] 103 % of control

O=[N+]([O-])c1cc(Br)cc(Br)c1[N+](=O)[O-]
inactive: [7] 97 % of control | [1] 102 % of control | [8] 89 % of control | [2] 102 % of control | [9] 95 % of control | [3] 98 % of control

CCC1(C)CCC2(C)C(CCC3C2CCCC3(C)CO)C1 (stereo not given)
inactive: [7] 94 % of control | [8] 88 % of control | [9] 96 % of control

COC12[C@@H]3N[C@@H]3CN1C1=C(C(=O)C(N(C)CCN(C)C)=C(C)C1=O)[C@@H]2COC(N)=O (stereo not given in full)
inactive: endpoint: median survival time, dose: 3.0 mg/kg/injection, schedule: Q01DX001 (ip), vehicle: saline 104 % of control | endpoint: median survival time, dose: 6.0 mg/kg/injection, schedule: Q01DX001 (ip), vehicle: saline 105 % of control | endpoint: median survival time, dose: 12.0 mg/kg/injection, schedule: Q01DX001 (ip), vehicle: saline 119 % of control and 105 % of control | endpoint: median survival time, dose: 24.0 mg/kg/injection, schedule: Q01DX001 (ip), vehicle: saline 109 % of control

COc1ccccc1N=Nc1c(O)n(-c2ccccc2OC)c(=S)n(-c2ccc(Cl)cc2)c1=O
inactive: [7] 90 % of control | [8] 93 % of control

CCOC(=O)C(Br)(Br)C(=O)OCC
inactive: endpoint: mean survival time, dose: 6.25 mg/kg/injection, schedule: Q01DX009 (ip), vehicle: saline with Tween-80 99 % of control | endpoint: mean survival time, dose: 12.5 mg/kg/injection, schedule: Q01DX009 (ip), vehicle: saline with Tween-80 99 % of control | endpoint: mean survival time, dose: 25.0 mg/kg/injection, schedule: Q01DX009 (ip), vehicle: saline with Tween-80 99 % of control

NC(=O)C#CC(N)=O
inactive: endpoint: mean survival time, dose: 0.37 mg/kg/injection, schedule: Q01DX009 (ip), vehicle: saline 101 % of control | endpoint: mean survival time, dose: 0.75 mg/kg/injection, schedule: Q01DX009 (ip), vehicle: saline 103 % of control | endpoint: mean survival time, dose: 1.5 mg/kg/injection, schedule: Q01DX009 (ip), vehicle: saline 109 % of control | endpoint: mean survival time, dose: 3.0 mg/kg/injection, schedule: Q01DX009 (ip), vehicle: saline 122 % of control | [1] 95 % of control | [4] 108 % of control | [2] 98 % of control | [5] 92 % of control | [3] 108 % of control | [6] 89 % of control

COc1cc2c(cc1OC)C[N+]1(C)CCc3cc(OC)c(OC)cc3C1C2 (stereo not given)
inactive: endpoint: mean survival time, dose: 5.0 mg/kg/injection, schedule: Q01DX001 (ip), vehicle: saline 97 % of control | endpoint: mean survival time, dose: 10.0 mg/kg/injection, schedule: Q01DX001 (ip), vehicle: saline 93 % of control | endpoint: mean survival time, dose: 20.0 mg/kg/injection, schedule: Q01DX001 (ip), vehicle: saline 103 % of control | endpoint: mean survival time, dose: 40.0 mg/kg/injection, schedule: Q01DX001 (ip), vehicle: saline 97 % of control

O=S(=O)(O)c1ccc(Nc2ccccc2)cc1
inactive: [1] 105 % of control | endpoint: mean survival time, dose: 100.0 mg/kg/injection, schedule: Q04DX003 (ip), vehicle: saline 104 % of control | [2] 97 % of control | endpoint: mean survival time, dose: 200.0 mg/kg/injection, schedule: Q04DX003 (ip), vehicle: saline 106 % of control | [3] 103 % of control | endpoint: mean survival time, dose: 400.0 mg/kg/injection, schedule: Q04DX003 (ip), vehicle: saline 100 % of control

CC(=O)Nc1nc2nccn2c(=O)[nH]1
inactive: endpoint: median survival time, dose: 50.0 mg/kg/injection, schedule: Q01DX005 (ip), vehicle: saline 101 % of control | endpoint: median survival time, dose: 100.0 mg/kg/injection, schedule: Q01DX005 (ip), vehicle: saline 100 % of control | endpoint: median survival time, dose: 200.0 mg/kg/injection, schedule: Q01DX005 (ip), vehicle: saline 101 % of control

OC(c1ccc(Cl)cc1)c1ccc(Cl)cc1
inactive: [7] 105 % of control | [8] 90 % of control | [9] 109 % of control

COc1ccc2nc3c(C)c4ccn(O)cc4c(C)c3c2c1
inactive: endpoint: mean survival time, dose: 25.0 mg/kg/injection, schedule: Q04DX003 (ip), vehicle: water 106 % of control | endpoint: mean survival time, dose: 50.0 mg/kg/injection, schedule: Q04DX003 (ip), vehicle: water 111 % of control | endpoint: mean survival time, dose: 100.0 mg/kg/injection, schedule: Q04DX003 (ip), vehicle: water 114 % of control | endpoint: mean survival time, dose: 178.0 mg/kg/injection, schedule: Q04DX003 (ip), vehicle: other 105 % of control | endpoint: mean survival time, dose: 266.0 mg/kg/injection, schedule: Q04DX003 (ip), vehicle: other 103 % of control | [10] 102 % of control | endpoint: mean survival time, dose: 600.0 mg/kg/injection, schedule: Q04DX003 (ip), vehicle: other 103 % of control

CN(C)c1ccc(/C=N/NC(=O)CNC(=O)c2ccccc2)cc1
inactive: [1] 95 % of control | [2] 89 % of control | [3] 89 % of control

NC(=O)c1ccccc1N=NN(CCF)CCF
inactive: endpoint: mean survival time, dose: 5.3 mg/kg/injection, schedule: Q04DX003 (ip), vehicle: saline with Tween-80 103 % of control | endpoint: mean survival time, dose: 8.0 mg/kg/injection, schedule: Q04DX003 (ip), vehicle: saline with Tween-80 100 % of control | endpoint: mean survival time, dose: 12.0 mg/kg/injection, schedule: Q04DX003 (ip), vehicle: saline with Tween-80 105 % of control

CC1(C)N=C(N)N=C(N)N1c1ccc(C(C#N)CCCc2ccccc2)cc1 (stereo not given)
inactive: endpoint: mean survival time, dose: 25.0 mg/kg/injection, schedule: Q01DX009 (ip), vehicle: Klucel (hydroxypropylcellulose) (HPC) 97 % of control | endpoint: mean survival time, dose: 50.0 mg/kg/injection, schedule: Q01DX009 (ip), vehicle: Klucel (hydroxypropylcellulose) (HPC) 101 % of control | endpoint: mean survival time, dose: 100.0 mg/kg/injection, schedule: Q01DX009 (ip), vehicle: Klucel (hydroxypropylcellulose) (HPC) 91 % of control

O=C1C2=Cc3ccccc3CN2Cc2ccccc21
inactive: endpoint: mean survival time, dose: 75.0 mg/kg/injection, schedule: Q01DX001 (ip), vehicle: other 98 % of control | endpoint: mean survival time, dose: 150.0 mg/kg/injection, schedule: Q01DX001 (ip), vehicle: other 101 % of control

Cc1nc2c(O)cccn2c(=O)c1Cl
inactive: [4] 102 % of control

CCOCC(=O)CC(C)C
inactive: endpoint: mean survival time, dose: 100.0 mg/kg/injection, schedule: Q04DX003 (ip), vehicle: other 100 % of control | endpoint: mean survival time, dose: 200.0 mg/kg/injection, schedule: Q04DX003 (ip), vehicle: other 91 % of control | [10] 100 % of control

COC(=O)CCC(=O)N1C=Cc2ccccc2C1C#N (stereo not given)
inactive: [1] 98 % of control | [4] 95 % of control | [2] 102 % of control | [5] 95 % of control | [3] 102 % of control | [6] 90 % of control

CCCCCCCCC[n+]1ccc(C#N)cc1
inactive: endpoint: mean survival time, dose: 9.38 mg/kg/injection, schedule: Q01DX001 (ip), vehicle: other 103 % of control | endpoint: mean survival time, dose: 18.75 mg/kg/injection, schedule: Q01DX001 (ip), vehicle: other 101 % of control | endpoint: mean survival time, dose: 37.5 mg/kg/injection, schedule: Q01DX001 (ip), vehicle: other 103 % of control

CN1CCC(c2ccccc2)(c2ccccc2)OC1c1ccccc1 (stereo not given)
inactive: [4] 101 % of control | [5] 100 % of control | [6] 94 % of control

c1ccc(-c2nc3ccc4ccccc4c3nc2-c2ccccc2)cc1
inactive: [1] 94 % of control | [4] 98 % of control | [2] 96 % of control | [5] 92 % of control | [3] 96 % of control | [6] 92 % of control

NC(=O)C1CC1c1ccccc1 (stereo not given)
inactive: [7] 100 % of control | [8] 102 % of control | [9] 96 % of control
